This note sets out measurements from PMC12156367, “Synthesis and Biological Evaluation of Seco-Coumarin/Furoxan Hybrids as Potent Anti-Tumor Agents to Overcome Multidrug Resistance via Multiple Mechanisms” (Molecules, 2025).

In data set [1] the test system is MCF-7 (human breast cancer cell line). Briefly: In vitro antiproliferative assay (MTT, 48 h), MCF-7. To be noted: MCF7, mean of three determinations. The data set is classed as cell-based. The text has this: (§1) The MDA-MB-468 cell line was procured from the Cell Bank of the Chinese Academy of Sciences. The MCF-7, MCF-7/ADR, MCF-10A, and MDA-MB-231 cell lines were kindly provided by Professor Xianyi Sha (Fudan University, Shanghai, China). The HUVEC cells were kindly provided by Associate Professor Hulie Zeng (Fudan University, Shanghai, China). The MDA-MB-468, MDA-MB-231, MCF-7, MCF-10A, and HUVEC cells were cultivated in DMEM (Service Biotechnology, China) supplemented with 10% FBS (Capricorn Scientific, Germany) and 1% penicillin-streptomycin (Meilunbio, Dalian, China). For the MCF-7/ADR cells, they were cultured in RPMI-1640 (Service Biotechnology, Wuhan, China), containing 10% FBS and 1% penicillin-streptomycin. […]
(§2) Following harvest during logarithmic growth, cells were plated in 96-well culture plates at an initial density of 5000 cells per well. […] The OD value at 570nm was measured using a microplate reader (Thermo Fisher, Waltham, MA, USA). Cell proliferation inhibition was determined using the following formula:Inhibition (%) = [(ODDMSO − ODcompd.)/(ODDMSO − ODblank)] × 100
(§3) GraphPad Prism software 9 was used to calculate the IC50 values. […] For instance, in the cell experiment, we recorded the cell viability values at different drug concentrations. […]

Data set [2] relates to MCF-7/ADR (doxorubicin-resistant human breast cancer cell line). In words: In vitro antiproliferative assay (MTT, 48 h), MCF-7/ADR. Type of data set: cell-based. The text has this: The MDA-MB-468 cell line was procured from the Cell Bank of the Chinese Academy of Sciences. The MCF-7, MCF-7/ADR, MCF-10A, and MDA-MB-231 cell lines were kindly provided by Professor Xianyi Sha (Fudan University, Shanghai, China). The HUVEC cells were kindly provided by Associate Professor Hulie Zeng (Fudan University, Shanghai, China). The MDA-MB-468, MDA-MB-231, MCF-7, MCF-10A, and HUVEC cells were cultivated in DMEM (Service Biotechnology, China) supplemented with 10% FBS (Capricorn Scientific, Germany) and 1% penicillin-streptomycin (Meilunbio, Dalian, China). For the MCF-7/ADR cells, they were cultured in RPMI-1640 (Service Biotechnology, Wuhan, China), containing 10% FBS and 1% penicillin-streptomycin. Additionally, 500 ng/mL of doxorubicin (Sigma-Aldrich, Saint Louis, MO, USA) was incorporated into the RPMI-1640 culture medium to keep drug resistance. All cell lines were cultured in a humidified incubator at 37 °C with a 5% CO2 atmosphere.
(§4) Following harvest during logarithmic growth, cells were plated in 96-well culture plates at an initial density of 5000 cells per well. Incubate the plate overnight at 37 °C to allow the cells to adhere. Following the overnight incubation, introduce the compound at the predetermined concentration into each well, and then return the plate to the incubator for an additional 48 h culture period. After the 48 h treatment, carefully aspirate the drug-containing medium from each well. Subsequently, add 150 μL of 0.5 mg/mL MTT (Beyotime, China) solution to each well. Protect the plate from light and incubate it at 37 °C for 4 h to allow the formation of formazan crystals. Finally, add 150 μL of DMSO (Sinopharm, China) to each well and gently mix to ensure complete dissolution of the formazan crystals. The OD value at 570nm was measured using a microplate reader (Thermo Fisher, Waltham, MA, USA). Cell proliferation inhibition was determined using the following formula:Inhibition (%) = [(ODDMSO − ODcompd.)/(ODDMSO − ODblank)] × 100
GraphPad Prism software 9 was used to calculate the IC50 values. The specific calculation process is as follows: Firstly, we input the experimental data into Prism. The data include the concentrations of the experimental compounds and the corresponding biological response values. For instance, in the cell experiment, we recorded the cell viability values at different drug concentrations. Subsequently, we select the option of “Dose–Response–Nonlinear Regression” in the “Analyze” menu for curve fitting. Generally speaking, we use the model of “[Inhibitor] vs. normalized response—Variable slope”. The Prism software fits the data through the nonlinear least squares method and finds the parameter values that can minimize the difference between the model’s predicted values and the actual data. After completing the curve fitting, the software will directly provide the estimated values and confidence intervals of the IC50 value and other relevant parameters. Meanwhile, it will also offer goodness-of-fit indices, such as the correlation coefficient, to evaluate the quality of the fitting. Through the above method, we can accurately calculate the IC50 value, thereby assessing the intensity of the inhibitory or activating effect of the compound on the biological system.

For data set [3], the system named is human normal mammary epithelial cell lines MCF-10A. Briefly: Cytotoxicity in normal mammary epithelial cells (MTT). The note with it: normal mammary epithelial cell line. The data set is classed as cell-based.
Description: as §1, §2, §3

Data set [4] in a line: Solubility experiment (HPLC) in water/acetonitrile. The data set is classed as physicochemical. The note with it: in water/acetonitrile (table title). The protocol: Wavelength: 254 nm; flow rate: 1.0 mL/min; column temperature: 25 °C. Mobile phase: Phase A: water, Phase B: acetonitrile (Table 5).
Compounds were dissolved in chromatographic-grade acetonitrile and diluted to concentrations of 200, 100, 50, 25, 12.5, and 6.25 µg/mL. A standard curve was plotted using the peak area under the curve (AUC) versus concentration. […] The supernatant was filtered through an ultrafiltration membrane and then subjected to HPLC analysis. The solubility of the target compound was determined by substituting the AUC of the test compound into the standard curve. Each measurement was performed in triplicate.

For a further data set, the target named is T1, hERG potassium channels (Homo sapiens, UniProt Q12809).
T1 construct: expressed in transfected cells; host or cells: CHO-hERG cells (CHO cells expressing hERG)
T1 sequence (Q12809 whole entry): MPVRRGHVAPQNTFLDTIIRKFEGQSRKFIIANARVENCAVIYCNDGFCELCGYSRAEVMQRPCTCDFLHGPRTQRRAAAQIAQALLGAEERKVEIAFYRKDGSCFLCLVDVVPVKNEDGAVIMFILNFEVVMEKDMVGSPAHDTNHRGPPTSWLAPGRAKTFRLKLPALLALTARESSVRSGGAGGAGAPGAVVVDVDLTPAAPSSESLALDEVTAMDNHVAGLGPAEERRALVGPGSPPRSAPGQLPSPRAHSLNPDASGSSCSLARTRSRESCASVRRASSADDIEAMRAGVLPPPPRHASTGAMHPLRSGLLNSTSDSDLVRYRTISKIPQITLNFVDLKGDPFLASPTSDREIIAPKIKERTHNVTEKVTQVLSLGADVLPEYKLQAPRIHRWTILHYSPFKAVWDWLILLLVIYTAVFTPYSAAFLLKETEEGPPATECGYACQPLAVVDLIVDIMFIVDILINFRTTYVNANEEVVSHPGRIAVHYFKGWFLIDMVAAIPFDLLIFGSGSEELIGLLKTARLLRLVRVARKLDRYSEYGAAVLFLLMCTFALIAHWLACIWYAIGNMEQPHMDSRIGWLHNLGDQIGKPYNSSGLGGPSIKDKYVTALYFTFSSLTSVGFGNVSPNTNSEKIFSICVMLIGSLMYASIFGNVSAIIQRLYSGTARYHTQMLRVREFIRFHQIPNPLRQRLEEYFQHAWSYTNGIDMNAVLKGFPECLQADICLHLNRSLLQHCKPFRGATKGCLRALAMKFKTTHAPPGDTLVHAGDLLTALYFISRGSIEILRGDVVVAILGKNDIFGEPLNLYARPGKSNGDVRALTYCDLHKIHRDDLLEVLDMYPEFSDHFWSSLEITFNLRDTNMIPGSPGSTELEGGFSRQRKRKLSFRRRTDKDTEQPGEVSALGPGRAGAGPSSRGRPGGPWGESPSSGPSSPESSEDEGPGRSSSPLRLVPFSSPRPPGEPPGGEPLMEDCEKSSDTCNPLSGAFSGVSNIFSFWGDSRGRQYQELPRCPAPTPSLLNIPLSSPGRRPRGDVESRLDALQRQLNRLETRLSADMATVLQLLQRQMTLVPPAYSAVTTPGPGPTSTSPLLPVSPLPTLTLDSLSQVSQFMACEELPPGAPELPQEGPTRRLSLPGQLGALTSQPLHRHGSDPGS
Briefly: Inhibition of hERG potassium channels (QPatch patch clamp, CHO-hERG cells). The data set is classed as cell-based. As to the method:
CHO-hERG cells (2 × 10^6 cells/dish) were seeded in confocal dishes. The compound stock solution was diluted with DMSO to six concentrations: 40.00, 13.33, 4.44, 1.48, 0.49, and 0.16 μM, which was prepared by using the Bravo platform. Both single-cell high-resistance sealing and whole-cell mode formation were automatically performed by the QPatch system (Shanghai Institute of Materia Medica, Shanghai, China). Each concentration was tested on at least two cells (n ≥ 2).
On the technique in general: hERG is a cardiac potassium channel; its block is linked to QT prolongation.

For data set [5], the system named is MCF-7/ADR. Briefly: Antiproliferative activity of 9e after pre-treatment with inhibitors (MTT). Type of data set: cell-based, human. As to the method:
as §4
Carboxy-PTIO (NO scavenger), NAC (N-acetylcysteine), tariquidar (P-glycoprotein inhibitor), and Fer-1 (ferrostatin-1, ferroptosis inhibitor) were purchased from Beyotime. MCF-7/ADR (5000 cells/well) were plated in 96-well plates and cultured overnight. Then, the cells were pre-treated with specified concentrations of inhibitors for 1 h and incubated with 9e (10 or 20 nM) or DMSO (24 h, 37 °C). Experimental procedures were the same as the method for the in vitro antiproliferative assay.

Data set [6] deals with MCF-7/ADR. In words: Lysosomal and mitochondrial NO levels (Lyso-NO, Mito-NO probes), MCF-7/ADR. Type of data set: cell-based, human. As to the method:
(§5) Lysosomal NO probes (Lyso-NO) and mitochondrial NO probes (Mito-NO), which are specifically used for detecting the nitric oxide levels in lysosomes and mitochondria, respectively, were provided by Professor Weili Zhao (Fudan University, China). Cells (MCF-7 or MCF-7/ADR) were plated in 6-well plates (2 × 10^5 cells/well). After overnight incubation, indicated concentrations of 9e were added to the cells for 4 h. Cells were first treated with 10 μM Lyso-NO or Mito-NO (15 min, 37 °C), then counterstained with Hoechst 33,342 nuclear dye (Beyotime, China; 10 min, 37 °C). Finally, the fluorescence intensity was measured under a fluorescence microscope (Olympus, Tokyo, Japan).

A further data set concerns MCF-7. In words: Lysosomal and mitochondrial NO levels (Lyso-NO, Mito-NO probes), MCF-7. The data set is classed as cell-based, human. To be noted: 9e. As to the method: as §5

Structures are written as SMILES.

A word on the IC50: it is the concentration at which inhibition is half-maximal. Low values mean higher potency, high ones lower potency. Take `COc1ccc(CCC(=O)c2ccc(OCCOc3no[n+]([O-])c3S(=O)(=O)c3ccccc3)cc2OC)cc1` [Compound 9e, 4-(2-(3-methoxy-4-(3-(4-methoxyphenyl)propanoyl)phenoxy)ethoxy)-3-(phenylsulfonyl)-1,2,5-oxadiazole 2-oxide]: the IC50 is 4.23 µM in data set [1]; 0.00302 µM in data set [2] (Homo sapiens, NCI/ADR-RES, MTT, 48 h, mean of three determinations); 13.2 µM in data set [3]; over 40 µM against hERG potassium channels. The “Selectivity Ratio IC50(MCF-7)/ IC50(MCF-7/ADR)” value in data set [2] (collateral sensitivity) was 1402.0. This molecule registered a Solubility in data set [4] of 56.4 ± 5.5%. Also, the “inhibitory activity after NAC pretreatment” value in the data set with MCF-7/ADR [5] (10 nM 9e + 1250 μM NAC) is “completely lost its inhibitory activity”. Also, in the data set on MCF-7/ADR [5] (20 nM 9e + 100 μM Carboxy-PTIO), the “cell survival rate with NO scavenger Carboxy-PTIO” value stood at 53.7%. The “cells still inhibited with P-gp inhibitor tariquidar” value with MCF-7/ADR [5] (9e + 5 μM tariquidar) was found to be 62%. Moreover, the inhibition at 0.02 µM in the data set with MCF-7/ADR [5] (Homo sapiens, NCI/ADR-RES, 9e 20 nM alone, read-out: proliferation inhibition rate) stood at 89%. Besides, the Lyso-NO probe signal result in the data set on MCF-7/ADR [6] (10 nM 9e, vs vehicle) was “significant rise”. For the same molecule, the Mito-NO probe signal entry with MCF-7/ADR [6] (9e, vs control) was “no difference”. Besides, the “Lyso-NO and Mito-NO probe fluorescence intensity” value in the data set with MCF-7 is “no increase in fluorescence intensity”.
